From the supplement of paper PMC11061612

Experiments:
[1] = compound: CC(=O)O[C@H]1C(=O)[C@@]2(C)[C@H]([C@H](OC(=O)c3ccccc3)[C@]3(O)C[C@H](OC(=O)[C@H](O)[C@@H](NC(=O)c4ccccc4)c4ccccc4)C(C)=C1C3(C)C)[C@]1(OC(C)=O)CO[C@@H]1C[C@@H]2O [Paclitaxel]; settings: max 3 µM
Procedure, shortened: (§1)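 Viability was measured with CellTiter-Glo 2.0 luminescence after 72 hours of dosing at a final DMSO of typically 0.2%, and scaled between blank-well and DMSO-well means. Beforehand, cancer cell lines sat 24 hours at 37°C and 5% CO2 in 1536-well plates in 7.5 μl DMEM/F12 or RPMI with 10% FBS. A non-linear mixed effects model fitted two-parameter logistic curves to the dose responses. The single-agent IC50 comes from these fits.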

[2] = compound: COc1cccc2c1C(=O)c1c(O)c3c(c(O)c1C2=O)C[C@@](O)(C(=O)CO)C[C@@H]3O[C@H]1C[C@H](N)[C@H](O)[C@H](C)O1 [Doxorubicin]; settings: max 1 µM
Procedure, shortened: as §1

[3] = compound: COc1nnc2ccc(N3CCC(c4ccc(OCCN5CCN(C)C(=O)[C@H]5C)cc4)CC3)nn12 [AZD5153]; settings: max 1 µM
Procedure, shortened: as §1

[4] = compound: C[C@@H](Nc1cc(F)cc(F)c1)c1cc(C(=O)N(C)C)cc2c(=O)cc(N3CCOCC3)oc12 [AZD8186]; settings: max 10 µM
Procedure, shortened: as §1

[5] = compound: N#Cc1cnc(Nc2cc(NC[C@H]3CNCCO3)c(C(F)(F)F)cn2)cn1 [SRA737]; settings: max 10 µM
Procedure, shortened: as §1

[6] = compound: COc1cccc(OCCCN)c1-c1cc(Nc2cnc(C#N)cn2)n[nH]1 [Prexasertib]; settings: max 1 µM
Procedure, shortened: as §1

[7] = compound: CC1(C)CCC(CN2CCN(c3ccc(C(=O)NS(=O)(=O)c4ccc(NCC5CCOCC5)c([N+](=O)[O-])c4)c(Oc4cnc5[nH]ccc5c4)c3)CC2)=C(c2ccc(Cl)cc2)C1 [Venetoclax]; settings: max 1 µM
Procedure, shortened: as §1

[8] = compound: Nc1ccn([C@@H]2O[C@H](CO)[C@@H](O)C2(F)F)c(=O)n1 [Gemcitabine]; settings: max 0.3 µM
Procedure, shortened: as §1

[9] = compound: CC1=C(C(=CC=C1)Cl)NC(=O)C2=CN=C(S2)NC3=CC(=NC(=N3)C)N4CCN(CC4)CCO [Dasatinib]; settings: max 2 µM
Procedure, shortened: as §1

[10] = compound: C[C@@H](c1ccc2nccn2c1)n1nnc2ncc(-c3cnn(C)c3)nc21 [Savolitinib]; settings: max 1 µM
Procedure, shortened: as §1

[11] = compound: C[C@@H](Oc1cc(-c2cnn(C3CCNCC3)c2)cnc1N)c1c(Cl)ccc(F)c1Cl [Crizotinib]; settings: max 10 µM
Procedure, shortened: as §1

[12] = compound: Cc1nc(-c2cn3c(n2)-c2ccc(-c4cnn(C(C)(C)C(N)=O)c4)cc2OCC3)n(C(C)C)n1 [Taselisib]; settings: max 10 µM
Procedure, shortened: as §1

[13] = compound: NC1(c2ccc(-c3nc4ccn5c(=O)[nH]nc5c4cc3-c3ccccc3)cc2)CCC1 [MK-2206]; settings: max 10 µM
Procedure, shortened: as §1

[14] = compound: CN(CC[C@H](CSC1=CC=CC=C1)NC2=C(C=C(C=C2)S(=O)(=O)NC(=O)C3=CC=C(C=C3)N4CCC(CC4)[C@H](C5=CC=CC=C5C6=CC=C(C=C6)Cl)O)S(=O)(=O)C(F)(F)F)CCO [AZD4320]; settings: max 1 µM
Procedure, shortened: as §1

[15] = compound: CC(=O)Nc1cccc(-n2c(=O)n(C3CC3)c(=O)c3c(Nc4ccc(I)cc4F)n(C)c(=O)c(C)c32)c1 [Trametinib]; settings: max 1 µM
Procedure, shortened: as §1

[16] = compound: COc1cc(Nc2ncc3c(n2)-c2ccc(Cl)cc2C(c2c(F)cccc2OC)=NC3)ccc1C(=O)O [Alisertib]; settings: max 10 µM
Procedure, shortened: as §1

[17] = compound: O=C(c1cc(Cc2n[nH]c(=O)c3ccccc23)ccc1F)N1CCN(C(=O)C2CC2)CC1 [Olaparib]; settings: max 10 µM
Procedure, shortened: as §1

[18] = compound: CN(C)CCCOc1ccc(-c2ccc3ncc4c(c3c2)n(C2CCOCC2)c(=O)n4C)cn1 [AZD0156]; settings: max 3 µM
Procedure, shortened: as §1

[19] = compound: Cn1cnc2c(F)c(Nc3ccc(Br)cc3Cl)c(C(=O)NOCCO)cc21 [Selumetinib]; settings: max 10 µM
Procedure, shortened: as §1

[20] = compound: CC(=O)c1c(C)c2cnc(Nc3ccc(N4CCNCC4)cn3)nc2n(C2CCCC2)c1=O [Palbociclib]; settings: max 10 µM
Procedure, shortened: as §1

[21] = compound: C1CN(CCC1(C(=O)N[C@@H](CCO)C2=CC=C(C=C2)Cl)N)C3=NC=NC4=C3C=CN4 [AZD5363]; settings: max 10 µM
Procedure, shortened: as §1

[22] = compound: Cc1c2c(nn1C)CSCc1cc(n(C)n1)CSc1cc(c3ccccc3c1)OCCCc1c(C(=O)O)n(C)c3c-2c(Cl)ccc13 [AZD5991]; settings: max 1 µM
Procedure, shortened: as §1

[23] = compound: COc1cc2ncnc(Nc3ccc(F)c(Cl)c3)c2cc1OCCCN1CCOCC1 [Gefitinib]; settings: max 10 µM
Procedure, shortened: as §1

[24] = compound: COc1cc([C@@H]2c3cc4c(cc3[C@@H](O[C@@H]3O[C@@H]5CO[C@@H](C)O[C@H]5[C@H](O)[C@H]3O)[C@H]3COC(=O)[C@H]23)OCO4)cc(OC)c1O [Etoposide]; settings: max 10 µM
Procedure, shortened: as §1

[25] = compound: Cc1cc2ncnn2cc1Nc1ncc2c(n1)n(C1CCOCC1)c(=O)n2C [AZD7648]; settings: max 10 µM
Procedure, shortened: as §1

[26] = compound: O=c1[nH]cc(F)c(=O)[nH]1 [5-Fluorouracil]; settings: max 20 µM
Procedure, shortened: as §1

[27] = compound: CC1=CN2[C@@H](C1)C=NC3=CC(=C(C=C3C2=O)OC)OCCCCCOC4=C(C=C5C(=C4)N=C[C@@H]6CC(=CN6C5=O)C)OC [SG3199]; settings: max 0.001 µM
Procedure, shortened: as §1

[28] = compound: CS(=O)(=O)CCNCc1ccc(-c2ccc3ncnc(Nc4ccc(OCc5cccc(F)c5)c(Cl)c4)c3c2)o1 [Lapatinib]; settings: max 10 µM
Procedure, shortened: as §1

[29] = compound: CCN(CCO)CCCOc1ccc2c(Nc3cc(CC(=O)Nc4cccc(F)c4)[nH]n3)ncnc2c1 [AZD2811]; settings: max 1 µM
Procedure, shortened: as §1

[30] = compound: O=C(Nc1ccc2[nH]nc(-c3ccncc3)c2c1)[C@@H]1CCN(CC(=O)N2CCN(c3ccc(-c4ncccn4)cc3)CC2)C1; settings: max 5 µM
Procedure, shortened: as §1

[31] = compound: C[C@@H]1COCCN1C2=NC(=NC(=C2)C3(CC3)[S@](=N)(=O)C)C4=C5C=CNC5=NC=C4 [AZD6738]; settings: max 10 µM
Procedure, shortened: as §1

[32] = compound: C1CC(C1)(C(=O)[O-])C(=O)[O-].N.N.[Pt+2] [Carboplatin]; settings: max 10 µM
Procedure, shortened: as §1

[33] = compound: C=CCn1c(=O)c2cnc(Nc3ccc(N4CCN(C)CC4)cc3)nc2n1-c1cccc(C(C)(C)O)n1 [AZD1775]; settings: max 3 µM
Procedure, shortened: as §1

[34] = compound: CC(C)n1c(=O)n(C)c2cnc3cc(F)c(-c4ccc(OCCCN5CCCCC5)nc4)cc3c21 [AZD1390]; settings: max 0.3 µM
Procedure, shortened: as §1

[35] = compound: CCc1c2c(nc3ccc(O)cc13)-c1cc3c(c(=O)n1C2)COC(=O)[C@]3(O)CC [SN-38]; settings: max 0.3 µM
Procedure, shortened: as §1

| Cell Line | IC50, cell viability 72 h [1] [nM] | IC50, cell viability 72 h [2] [nM] | IC50, cell viability 72 h [3] [nM] | IC50, cell viability 72 h [4] [nM] | IC50, cell viability 72 h [5] [nM] | IC50, cell viability 72 h [6] [nM] | IC50, cell viability 72 h [7] [nM] | IC50, cell viability 72 h [8] [nM] | IC50, cell viability 72 h [9] [nM] | IC50, cell viability 72 h [10] [nM] | IC50, cell viability 72 h [11] [nM] | IC50, cell viability 72 h [12] [nM] | IC50, cell viability 72 h [13] [nM] | IC50, cell viability 72 h [14] [nM] | IC50, cell viability 72 h [15] [nM] | IC50, cell viability 72 h [16] [nM] | IC50, cell viability 72 h [17] [nM] | IC50, cell viability 72 h [18] [nM] | IC50, cell viability 72 h [19] [nM] | IC50, cell viability 72 h [20] [nM] | IC50, cell viability 72 h [21] [nM] | IC50, cell viability 72 h [22] [nM] | IC50, cell viability 72 h [23] [nM] | IC50, cell viability 72 h [24] [nM] | IC50, cell viability 72 h [25] [nM] | IC50, cell viability 72 h [26] [nM] | IC50, cell viability 72 h [27] [nM] | IC50, cell viability 72 h [28] [nM] | IC50, cell viability 72 h [29] [nM] | IC50, cell viability 72 h [30] [nM] | IC50, cell viability 72 h [31] [nM] | IC50, cell viability 72 h [32] [nM] | IC50, cell viability 72 h [33] [nM] | IC50, cell viability 72 h [34] [nM] | IC50, cell viability 72 h [35] [nM] |
| --- | --- | --- | --- | --- | --- | --- | --- | --- | --- | --- | --- | --- | --- | --- | --- | --- | --- | --- | --- | --- | --- | --- | --- | --- | --- | --- | --- | --- | --- | --- | --- | --- | --- | --- | --- |
| SNU-387 (Hepatocellular Carcinoma) | 27.4 | > 1000 | > 1000 | 8360 | > 10000 | 555 | > 1000 | > 300 | > 2000 | > 1000 | > 10000 | > 10000 | > 10000 | > 1000 | 583 | > 10000 | > 10000 | > 3000 | > 10000 | > 10000 | > 10000 | > 1000 | > 10000 | > 10000 | > 10000 | > 20000 | > 1 | > 10000 | > 1000 | > 5000 | > 10000 | > 10000 | 1030 | > 300 | > 300 |
| SW872 (Other Solid Carcinomas) | 210 | 784 | 793 | > 10000 | > 10000 | 156 | > 1000 | 69.1 | > 2000 | > 1000 | > 10000 | 8840 | > 10000 | > 1000 | > 1000 | > 10000 | > 10000 | > 3000 | > 10000 | > 10000 | > 10000 | > 1000 | > 10000 | 6820 | > 10000 | 8430 | > 1 | > 10000 | > 1000 | > 5000 | > 10000 | > 10000 | > 3000 | > 300 | 20.9 |
| MOG-G-UVW (Low Grade Glioma) | 3 | 156 | 340 | 9250 | > 10000 | 26.5 | > 1000 | 27.3 | > 2000 | > 1000 | 4010 | 3690 | > 10000 | > 1000 | 148 | 562 | > 10000 | > 3000 | > 10000 | > 10000 | > 10000 | > 1000 | > 10000 | 1600 | > 10000 | > 20000 | > 1 | > 10000 | 344 | > 5000 | 5120 | > 10000 | 582 | > 300 | 11.7 |
| NCI-H1355 (Lung Adenocarcinoma) | 42.9 | > 1000 | > 1000 | > 10000 | > 10000 | 86.5 | > 1000 | > 300 | > 2000 | > 1000 | > 10000 | 5790 | > 10000 | > 1000 | > 1000 | > 10000 | > 10000 | > 3000 | > 10000 | > 10000 | > 10000 | > 1000 | > 10000 | > 10000 | > 10000 | > 20000 | > 1 | > 10000 | > 1000 | > 5000 | 8560 | > 10000 | > 3000 | > 300 | > 300 |
| NCI-H522 (Lung Adenocarcinoma) | 59.5 | > 1000 | > 1000 | > 10000 | > 10000 | > 1000 | > 1000 | > 300 | > 2000 | > 1000 | > 10000 | > 10000 | > 10000 | > 1000 | > 1000 | > 10000 | > 10000 | > 3000 | > 10000 | > 10000 | > 10000 | > 1000 | > 10000 | > 10000 | > 10000 | > 20000 | > 1 | > 10000 | > 1000 | > 5000 | > 10000 | > 10000 | > 3000 | > 300 | > 300 |
